# Measurements published in patent US20020168658A1, “Amplification of nucleic acids” (YALE UNIVERSITY, priority 1995, published 2002).
# Columns and labels:
# [1] = test system: OCT-T1 template (80% G+C); test: Amplification using AmpliTaq DNA polymerase under standard conditions with additives; type: biochemical, human; conditions: DMSO 10% v/v, betaine up to 2.5 M, glycerol 10% v/v, formamide 10% v/v, TMACl 0.1 mM to 1.0 M
# Text: (§1) A number of test DNAs are utilized in amplification reactions. Four of the test fragments are:
# (iii) a 0.8 kb fragment of human OCT-T1 cDNA, which encodes a transcription factor expressed in T lymphocytes that binds the octamer sequence, and which has an 80% G+C content (see Bhargava et al., Proc. Natl. Acad. Sci. USA 91:10260, 1993; SEQ ID NO. 4); and
# As each of these fragments are cloned in pBluescript or a pUC plasmid (MHCcln1), primers for amplification of these fragments are the M13 forward primer ([…]; SEQ. ID No. 1) and the M13 reverse primer ([…]; SEQ ID No. 2). Thus, the sizes of the amplified fragments for each of these four templates, with the exception of MHCcln1, include 200 bp of multiple cloning sites of pBluescript vector.
# The two G+C-rich templates are unsuccessfully amplified (MHCcln1 and OCT-T1) using AmpliTaq® DNA polymerase (Perkin-Elmer Cetus) under standard conditions. (See Science 239:487, 1988). […] In addition, betaine (>1.0 M), formamide (>5%), and TMACl (>100 mM) are inhibitory for amplification of the non-G+C-rich template OCT1.
# [2] = test system: mixture of the 4 templates, OCT1, OCT-T1, TFR and MHCcln1; test: Amplification of a mixture of the four templates using Klentaq LA16, varying DMSO and/or betaine; type: biochemical; conditions: for uniformity of amplification of the four templates: DMSO (5%, 10%) or betaine (1.1 M, 2.2 M) alone, FIG. 1B lanes 9-12
# Description: (§2) The amplification reaction (50 μl) is performed in 20 mM Tris-HCl, pH 9.0 at 25° C., containing 150 μg/ml of bovine serum albumin, 16 mM ammonium sulfate, 2.5 mM magnesium chloride, 200 μM of each dNTP, 50 ng each of the M13 forward primer and the M13 reverse primer, 0.5-1.0 ng of plasmid templates and 0.2-0.4 μl of Klentaq LA16 (a 1:15 v/v ratio of Klentaq1 (Ab Peptides Inc., St. Louis, Mo.), which is Taq DNA polymerase lacking the 5′ to 3′ exonuclease activity, and Pfu DNA polymerase (Stratagene, LaJolla, Calif.); the long and accurate (LA) system described in Barnes, Proc. Natl. Acad. Sci. USA 91:2216, 1994). DMSO, TMACl, TMAA, betaine, or the combination of DMSO and betaine is added to aliquots of the same mixture without dNTPs and overlaid with mineral oil. Amplification is performed in a thermocycler instrument using thin-walled tubes (0.5 ml). The tubes are heated at 95° C. for 15 seconds and amplification is initiated by the addition of dNTPs at 80° C. The following cycling conditions are used for 25 cycles: denaturation at 94° C. for 15 seconds, annealing at 50 to 55° C. for 1 minute, and extension at 68° C. for 5 minutes. Following amplification, 10 μl of the resulting product is loaded onto a 1% agarose gel (see Molecular Cloning: A Laboratory Manual by J. Sambrook et al., Cold Spring Harbor, 1989). The amplified DNA is stained with ethidium bromide and the gel is photographed while UV-irradiated by a transilluminator.
# Amplification is also performed on a mixture of the four templates, varying the concentrations of DMSO and/or betaine. […] Thus, by adding both DMSO and betaine, preferably within a range of 1.0 M betaine with 6-8% DMSO or 5% DMSO with 1.2-1.8 M betaine, all four templates are amplified.
# [3] = test system: OCT-T1 template (80% G+C); test: Amplification using two enzyme mixture Klentaq LA16 with additives; type: biochemical, human; conditions: for amplification of OCT-T1: Klentaq LA16, 2.2 M betaine or 10% DMSO, FIG. 1A lanes 7-8; for OCT-T1 amplification: salt >0.15 M
# Description: (§3) Each of the G+C-rich templates is set up in an amplification reaction using a two enzyme mixture, with and without the addition of betaine (0.5 to 2.5 M), DMSO (5-10%), formnamide (5-10%), glycerol (5-10%), TMACl (0.1 mM to 1 M), and tetramethylammonium acetate (TMAA) (0.1 mM-1.0 M).
# as §2
# (§4) Various analogues of betaine and two tetraalkylammonium salts are used to amplify OCT-T1 or TFR templates. Amplification reactions are performed as above in the presence of either 2 M analogue or at least 0.15 M salt.
# TFR template (44% G+C) = test: as above; type: biochemical, human; conditions: for amplification of TFR: Klentaq LA16, 2.2 M betaine or 10% DMSO, FIG. 1A lanes 3-4; for TFR amplification: salt >0.15 M
# Description: as §3, §2, §4
# OCT1 template = test: as above; type: biochemical, human; conditions: for amplification of OCT1: 2.2 M betaine or 10% DMSO, FIG. 1A lanes 1-2; for effect on amplification of OCT1: at 0.1-1.0 M
# Description: as §3, §2
# [4] = test system: MHCcln1 template (64% G+C); test: Amplification using AmpliTaq DNA polymerase under standard conditions with additives; type: biochemical; conditions: DMSO 10% v/v, betaine up to 2.5 M, glycerol 10% v/v, formamide 10% v/v, TMACl 0.1 mM to 1.0 M
# Text: as §1
# (ii) a 1.6 kb fragment from the MHC region, MHCclnl, which has a 64% G+C content (see Shukla et al., Nucleic Acids Res. 19:4233, 1991; GenBank Accession No. L20433; SEQ ID No. 3, which presents nucleotides 320 to 850 of L20433);
# (§5) Thus, the sizes of the amplified fragments for each of these four templates, with the exception of MHCcln1, include 200 bp of multiple cloning sites of pBluescript vector.
# (§6) (See Science 239:487, 1988).
# MHCcln1 template = test: Amplification using two enzyme mixture Klentaq LA16 with additives; type: biochemical; conditions: 2.2 M betaine or 10% DMSO, FIG. 1A lanes 5-6
# Description: as §3
# as §2, with “The following cycling conditions are used for 25 cycles: denaturation at 94° C. for 15 seconds, annealing at 50 to 55° C. for 1 minute, and extension at 68° C. for 5 minutes. Following amplification, 10 μl of the resulting product is loaded onto a 1% agarose gel (see Molecular Cloning: A Laboratory Manual by J. Sambrook et al., Cold Spring Harbor, 1989). The amplified DNA is stained with ethidium bromide and the gel is photographed while UV-irradiated by a transilluminator.” left out
# OCT1 template (52% G+C) = test: Amplification using AmpliTaq DNA polymerase under standard conditions with additives; type: biochemical, human
# Text: as §1
# (i) a 2.7 kb cDNA encoding the octamer binding protein, OCT1 GenBank accession No. X13403; Sturm et al., Genes & Dev. 2:1582, 1988; SEQ ID No. 8), which has a 52% G+C content;
# as §5, §6
# [5] = higher concentration of DMSO (12-15%) or betaine (1.8-2.5 M)
visible amplification of OCT-T1 [1],amplification of OCT-T1 [3],amplification of TFR (TFR template (44% G+C)),amplification of OCT1 (OCT1 template),visible amplification of MHCcln1 [4],amplification of MHCcln1 (MHCcln1 template),effect on amplification of the non-G+C-rich template OCT1 (OCT1 template (52% G+C); betaine >1.0 M),Compound,uniformity of amplification of the four templates [2],"amplification of all four templates [2, 5]",amplification of all four templates ([2]; 2.2 M betaine (lane 12)),OCT-T1 amplification [3],TFR amplification (TFR template (44% G+C)),effect on amplification of OCT1 (OCT1 template),effect on amplification of the non-G+C-rich template OCT1 (OCT1 template (52% G+C); TMACl >100 mM),effect on amplification of the non-G+C-rich template OCT1 (OCT1 template (52% G+C); formamide >5%)
did not result in visible amplification,could be amplified,could be amplified,could be amplified,did not result in visible amplification,could be amplified,–,"C[S+](C)[O-] [DMSO, dimethyl sulfoxide]",not amplified uniformly,variable amplification,–,–,–,–,–,–
did not result in visible amplification,could be amplified,could be amplified,could be amplified,did not result in visible amplification,could be amplified,inhibitory,C[N+](C)(C)CC(=O)O [Glycine betaine],not amplified uniformly,variable amplification,amplified to a varying extent,–,–,–,–,–
did not result in visible amplification,–,–,–,did not result in visible amplification,–,–,OCC(O)CO [glycerol],–,–,–,–,–,–,–,–

# Continued, molecule first:
Compound,visible amplification of OCT-T1 [1],amplification of OCT-T1 [3],amplification of TFR (TFR template (44% G+C)),amplification of OCT1 (OCT1 template),visible amplification of MHCcln1 [4],amplification of MHCcln1 (MHCcln1 template),effect on amplification of the non-G+C-rich template OCT1 (OCT1 template (52% G+C); betaine >1.0 M),uniformity of amplification of the four templates [2],"amplification of all four templates [2, 5]",amplification of all four templates ([2]; 2.2 M betaine (lane 12)),OCT-T1 amplification [3],TFR amplification (TFR template (44% G+C)),effect on amplification of OCT1 (OCT1 template),effect on amplification of the non-G+C-rich template OCT1 (OCT1 template (52% G+C); TMACl >100 mM),effect on amplification of the non-G+C-rich template OCT1 (OCT1 template (52% G+C); formamide >5%)
"CC(=O)[O-].C[N+](C)(C)C [TMAA, tetramethylammonium acetate]",–,–,–,–,–,–,–,–,–,–,unable to facilitate amplification,unable to facilitate amplification,inhibit amplification,–,–
"C[N+](C)(C)C.[Cl-] [TMAC, tetramethylammonium chloride]",did not result in visible amplification,–,–,–,did not result in visible amplification,–,–,–,–,–,unable to facilitate amplification,unable to facilitate amplification,inhibit amplification,inhibitory,–
NC=O [formamide],did not result in visible amplification,–,–,–,did not result in visible amplification,–,–,–,–,–,–,–,–,–,inhibitory
